{
  "source": "patent US20250222017A1",
  "about": "“METHODS OF USING AVERMECTIN COMPOSITIONS FOR THE TREATMENT OF NEUROLOGICAL DISORDERS AND DOSING REGIMENS” (priority 2022, published 2025)",
  "key": {"focal seizures": {"system": "focal seizures", "details": "cited from earlier work"}, "[1]": {"system": "pentylenetetrazol (PTZ)-induced ictal brain activity", "assay": "Modulation of PTZ-induced seizures, BOLD fMRI", "type": "in vivo, male Wistar rats", "details": "positive control, Wistar rats", "experimental": "Functional MRI (fMRI) was performed using a high-field preclinical MRI system in anesthetized male Wistar rats in order to determine the modulation of pentylenetetrazol (PTZ)-induced ictal brain activity by chronic treatment with test compound (TC). […] Vehicle and 3 mg/kg Alprazolam served as controls (see, Table 11). Seizures were induced with PTZ in each experimental group. A schematic of the study design can be seen in FIG. 6. Various physiological parameters were also measured throughout the experiment including body weight, CO2 levels, blood pH, and heart rate. […] Vehicle and 3 mg/kg Alprazolam served as controls (see, Table 12)."}, "human CD4+ T cells": {"system": "human CD4+ T cells", "assay": "Human CD4+ T cells activated under Th17 skewing conditions, in vitro", "type": "cell-based", "details": "data not shown"}, "EAE": {"system": "EAE", "assay": "Experimental autoimmune encephalomyelitis (EAE) model of MS", "type": "in vivo", "details": "EAE in C57BL/6 mice; 1, 2, 4 mg/kg oral once daily, Day 14 to Day 34", "method": "EAE is induced in C57BL/6 mice by immunization with MOG35-55 or MOG1-12s in CFA emulsion followed by administration of pertussis toxin (PTX) in PBS. […] Fingolimod (FTY720, Gilenya) is the most commonly used positive control in this model.\nVehicle was 1.6% DMSO in water. […] These were frozen at −20° C. Every 3 to 4 days, one aliquot was thawed and diluted with water to create a fine suspension at 0.8 mg/mL (for 4 mg/kg dosing). Final DMSO concentration was 1.6%. […] FTY720 stock solution (30 mg/mL in ethanol) was prepared for all ongoing studies. Daily, the FTY720 stock solution was diluted with water to the final dosing concentration of 0.6 mg/mL.\nEAE was induced on Day 0 by myelin oligodendrocyte glycoprotein (MOG35-55)/complete Freund's adjuvant (CFA) immunization, followed by pertussis toxin (PTX) injections on Days O and 1. Treatment was therapeutic, starting on Day 14. […] Treatment continued through Day 34. Mice were observed through the end of the study, Day 35.\nClinical scores were assessed as follows: 1=limp tail, 2=partial hind leg paralysis, 3=complete hind leg paralysis, 4=complete hindleg and partial front leg paralysis; 5=moribund."}, "spasms": {"system": "spasms", "assay": "Two-stage model of infantile spasms (NMDA-induced)", "type": "in vivo, Sprague-Dawley rats", "details": "spasms triggered on P15, rats", "excerpt": "A two-stage model of infantile spasms was developed (FIG. 19A). Pregnant Sprague-Dawley rats receive two injections of betamethasone on gestational (G) day 15. Offspring of those pregnancies are used for experiments during infancy, postnatal days (P) 10-15. Spasms are induced by i.p. injection of N-methyl-D-aspartic acid (NMDA), which is graded depending on the postnatal age of the subjects.\nDays of dosing were P10, P11, P12, P13, P14 and P15."}},
  "note": "“Also recorded” adds a separate entry of the source. Like-named read-outs stand apart in the source and are kept apart here.",
  "data": [
    {"compound": "NC(=O)N1c2ccccc2C[C@H](O)c2ccccc21", "note": "[APTIOM, Eslicarbazepine]", "values": [
      {"measurement": "Placebo-adjusted >50% Focal Seizure Reduction", "setting": "focal seizures; 1200 mg", "value": 20, "unit": "%"},
      {"measurement": "Placebo-adjusted Median Reduction in Focal Seizure Frequency", "setting": "focal seizures; 2000 mg", "value": "14-24%"}
    ]},
    {"compound": "Cc1nnc2n1-c1ccc(Cl)cc1C(c1ccccc1)=NC2", "note": "[Alprazolam]", "values": [
      {"measurement": "PTZ-induced brain activity (BOLD fMRI)", "setting": "[1]; 3 mg/kg i.p., 1 dose, 3 mg/kg", "value": "effectively cancelled PTZ-induced brain activity; also recorded: Vehicle vs. Alprazolam in all"}
    ]},
    {"compound": "CC[C@@H](C(N)=O)N1CCCC1=O", "note": "[KEPPRA, Leviteracetam]", "values": [
      {"measurement": "Placebo-adjusted >50% Focal Seizure Reduction", "setting": "focal seizures; 3000 mg", "value": 29, "unit": "%"},
      {"measurement": "Placebo-adjusted Median Reduction in Focal Seizure Frequency", "setting": "focal seizures; 3000 mg", "value": "23-31%"}
    ]},
    {"compound": "ivermectin", "values": [
      {"measurement": "FoxP3 mRNA levels", "setting": "human CD4+ T cells", "value": "up-regulation"},
      {"measurement": "increase in the percentage of Foxp3+ T cells", "setting": "human CD4+ T cells", "value": 50, "unit": "%"},
      {"measurement": "limb paralysis (clinical score)", "setting": "EAE", "value": "significantly downregulates"},
      {"measurement": "occurrence of spasms in comparison to controls (vehicle)", "setting": "spasms; 2 mg/kg i.p. daily P10-P15", "value": "significantly suppressed occurrence of spasms; also recorded: significantly fewer spasms"},
      {"measurement": "occurrence of spasms in comparison to controls (vehicle)", "setting": "spasms; 4 mg/kg i.p. daily P10-P15", "value": "significantly suppressed occurrence of spasms; also recorded: significantly fewer spasms"}
    ]},
    {"compound": "CCC[C@@H]1CC(=O)N([C@@H](CC)C(N)=O)C1", "note": "[BRIVIACT, Brivaracetam]", "values": [
      {"measurement": "Placebo-adjusted >50% Focal Seizure Reduction", "setting": "focal seizures; 200 mg", "value": 18, "unit": "%"},
      {"measurement": "Placebo-adjusted Median Reduction in Focal Seizure Frequency", "setting": "focal seizures; 200 mg", "value": 26, "unit": "%"}
    ]},
    {"compound": "CN1C(=O)CN=C(c2ccccc2)c2cc(Cl)ccc21", "note": "[Diazepam]", "values": [
      {"measurement": "PTZ-induced brain activity (BOLD fMRI)", "setting": "[1]; dose not given", "value": "effectively cancelled PTZ-induced brain activity"}
    ]},
    {"compound": "COC[C@@H](NC(C)=O)C(=O)NCc1ccccc1", "note": "[VIMPAT, Lacosamide]", "values": [
      {"measurement": "Placebo-adjusted >50% Focal Seizure Reduction", "setting": "focal seizures; 400 mg", "value": 17, "unit": "%"},
      {"measurement": "Placebo-adjusted Median Reduction in Focal Seizure Frequency", "setting": "focal seizures; 400 mg", "value": "15-29%"}
    ]},
    {"compound": "NC(=O)O[C@@H](Cn1ncnn1)c1ccccc1Cl", "note": "[XCOPRI, Cenobamate]", "values": [
      {"measurement": "Placebo-adjusted >50% Focal Seizure Reduction", "setting": "focal seizures; 400 mg", "value": 39, "unit": "%"},
      {"measurement": "Placebo-adjusted Median Reduction in Focal Seizure Frequency", "setting": "focal seizures; 4200 mg", "value": 31, "unit": "%"}
    ]},
    {"compound": "Cc1cc(N2CCc3cc(F)ccc3C2)cc(C)c1NC(=O)CC(C)(C)C", "note": "[XEN1101]", "values": [
      {"measurement": "Placebo-adjusted >50% Focal Seizure Reduction", "setting": "focal seizures; 25 mg", "value": 40, "unit": "%"},
      {"measurement": "Placebo-adjusted Median Reduction in Focal Seizure Frequency", "setting": "focal seizures; 25 mg", "value": 35, "unit": "%"}
    ]}
  ]
}
